Assay results from publication PMC4486471 (Nature communications, 2014).
One block for each molecule: values may come before it.

Tests used:
[1] = test system: rheumatoid arthritis model; conditions: cited from earlier work
myeloma tumor = conditions: cited from earlier work
murine IRE1α [2] = biological target: T1, murine IRE1α (Mus musculus, UniProt Q9EQY0, N772Y); assay: biochemical; conditions: IC50 IRE1α RNase activity, naphthol analogue series, average n=4 +/- s.d.
CD59 mRNA (RIDD target) = assay: CD59; format: cell-based, human; conditions: 10 μM
[3] = biological target: IRE1α auto-kinase activity (Mus musculus, UniProt Q9EQY0, N772Y); assay: IRE1α auto-kinase; format: biochemical, murine
IRE1α auto-kinase activity, sequence (Q9EQY0 499-977 N772Y): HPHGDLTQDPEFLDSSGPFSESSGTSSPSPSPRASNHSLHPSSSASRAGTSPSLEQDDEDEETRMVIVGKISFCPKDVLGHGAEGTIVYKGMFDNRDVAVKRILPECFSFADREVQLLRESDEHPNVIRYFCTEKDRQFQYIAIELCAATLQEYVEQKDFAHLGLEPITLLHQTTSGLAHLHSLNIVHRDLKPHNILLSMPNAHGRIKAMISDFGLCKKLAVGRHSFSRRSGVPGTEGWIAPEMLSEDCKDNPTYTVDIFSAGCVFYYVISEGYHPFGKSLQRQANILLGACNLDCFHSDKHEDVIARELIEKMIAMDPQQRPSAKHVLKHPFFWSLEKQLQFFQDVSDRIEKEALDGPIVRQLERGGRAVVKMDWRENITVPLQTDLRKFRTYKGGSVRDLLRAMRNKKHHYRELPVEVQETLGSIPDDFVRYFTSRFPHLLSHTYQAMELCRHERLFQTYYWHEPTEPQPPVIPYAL

murine IRE1α Asn906Leu = murine IRE1α Asn906Leu (Mus musculus, UniProt Q9EQY0, N772Y/N906L); assay: Direct binding by micro-scale thermophoresis; conditions: Kd (avg), average
murine IRE1α Asn906Leu, sequence (Q9EQY0 499-977 N772Y/N906L): as the sequence (Q9EQY0 499-977 N772Y) above, with N408L counted along it

murine IRE1α Tyr892Ala = murine IRE1α Tyr892Ala (Mus musculus, UniProt Q9EQY0, N772Y/Y892A); assay: Direct binding by micro-scale thermophoresis; conditions: Kd (avg), average
murine IRE1α Tyr892Ala, sequence (Q9EQY0 499-977 N772Y/Y892A): as the sequence (Q9EQY0 499-977 N772Y) above, with Y394A counted along it

yeast IRE1 [4] = biological target: T2, yeast IRE1 (Saccharomyces cerevisiae, UniProt P32361, DEL869-892); assay: IRE1 RNase activity, real time fluorescence readout assay; format: biochemical; conditions: RNase inhibition
T2 sequence (P32361 with tags, fused parts or gaps DEL869-892): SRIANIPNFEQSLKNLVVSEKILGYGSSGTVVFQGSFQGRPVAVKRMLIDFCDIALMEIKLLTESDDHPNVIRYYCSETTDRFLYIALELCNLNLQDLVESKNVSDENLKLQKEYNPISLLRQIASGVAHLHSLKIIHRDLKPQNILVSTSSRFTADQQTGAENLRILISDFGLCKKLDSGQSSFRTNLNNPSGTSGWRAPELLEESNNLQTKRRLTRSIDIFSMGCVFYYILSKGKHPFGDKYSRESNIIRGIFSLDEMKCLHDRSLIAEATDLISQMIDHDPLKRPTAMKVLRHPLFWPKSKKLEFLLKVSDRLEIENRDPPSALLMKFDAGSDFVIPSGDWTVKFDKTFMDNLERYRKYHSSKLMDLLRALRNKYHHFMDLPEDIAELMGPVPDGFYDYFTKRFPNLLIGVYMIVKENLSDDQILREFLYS

[5] = test system: XBP1 mRNA splicing (IRE1α); assay: XBP1 mRNA splicing in RPMI 8226 plasmacytoma cells; format: cell-based, human
murine IRE1α Phe889Ala = murine IRE1α Phe889Ala (Mus musculus, UniProt Q9EQY0, F889A/N772Y); assay: Direct binding by micro-scale thermophoresis; conditions: Kd (avg), average
murine IRE1α Phe889Ala, sequence (Q9EQY0 499-977 N772Y/F889A): as the sequence (Q9EQY0 499-977 N772Y) above, with F391A counted along it

murine IRE1α Lys907Ala [6] = biological target: T3, murine IRE1α Lys907Ala (Mus musculus, UniProt Q9EQY0, K907A/N772Y); assay: Direct binding by micro-scale thermophoresis
T3 sequence (Q9EQY0 499-977 N772Y/K907A): as the sequence (Q9EQY0 499-977 N772Y) above, with K409A counted along it

murine IRE1α His910Ala = murine IRE1α His910Ala (Mus musculus, UniProt Q9EQY0, H910A/N772Y); assay: Direct binding by micro-scale thermophoresis; conditions: Kd (avg), average
murine IRE1α His910Ala, sequence (Q9EQY0 499-977 N772Y/H910A): as the sequence (Q9EQY0 499-977 N772Y) above, with H412A counted along it

murine IRE1α Lys907Ala [7] = biological target: T3, murine IRE1α Lys907Ala; assay: Gel based RNase cleavage assay with dual-hairpin RNA substrate; format: biochemical; conditions: 100 μM IRE1α, 60 μM dual hairpin substrate
murine IRE1α [8] = biological target: T1, murine IRE1α; assay: Oligomerization status by velocity analytical ultracentrifugation; conditions: ADP 500 μM, JAK inhibitor I 30 μM
yeast IRE1 [9] = biological target: T2, yeast IRE1; conditions: cited from earlier work
[10] = biological target: murine IRE1α auto-kinase activity (Mus musculus, UniProt Q9EQY0, N772Y); assay: Auto-phosphorylation kinase assay with P32-γ-ATP; format: biochemical; conditions: read-out: IC50 (avg) auto-kinase activity of murine IRE1α; 10 minute time point; n=2
murine IRE1α auto-kinase activity, sequence (Q9EQY0 499-977 N772Y): as the sequence (Q9EQY0 499-977 N772Y) above

T1 sequence (Q9EQY0 499-977 N772Y): as above

Molecule: Cc1cc(=O)oc2c(C=O)c(O)ccc12 [4μ8C]
XBP1s, inflammatory cytokines and inflammation [1]: effective in suppressing

Molecule: CN1CCN(C(=O)c2ccc(-c3ccc4c(C=O)c(O)ccc4c3)s2)CC1 [MKC3946, 2-Hydroxy-6-[5-(4-methyl-piperazine-1-carbonyl)-thiophen-2-yl]-naphthalene-1-carbaldehyde]
Myeloma tumor growth (myeloma tumor): reduced myeloma tumor growth | Splicing of XBP1 mRNA in tissues and tumors (myeloma tumor): inhibited the splicing of XBP1 mRNA in tissues and tumors | Tolerability in vivo (myeloma tumor): readily tolerated with high exposure

IC50 (murine IRE1α [2]): 0.39 µM
Molecule: O=Cc1c(O)ccc2ccc(Br)cc12 [MKC3987, 7-Bromo-2-hydroxy-naphthalene-1-carbaldehyde]

IC50 (murine IRE1α [2]): 5.7 µM
Molecule: CN1CCN(C(=O)c2ccc(-c3ccc4ccc(O)c(C=O)c4c3)cc2)CC1 [MKC4027, 2-Hydroxy-7-[4-(4-methyl-piperazine-1-carbonyl)-phenyl]-naphthalene-1-carbaldehyde]

IC50 [3]: > 10 µM | Kd (murine IRE1α Asn906Leu): 8.9 µM | Kd (murine IRE1α Tyr892Ala): 10 µM | Resistance of yeast IRE1 relative to IRE1α (yeast IRE1 [4]): ~ 100 fold | EC50 ([5]; Homo sapiens, RPMI-8226, read-out: EC50 (avg) XBP1 splicing): 0.33 µM | Kd (murine IRE1α Phe889Ala): 10.9 µM | Binding to IRE1α Lys907Ala (murine IRE1α Lys907Ala [6]): abolished detectable binding | Kd (murine IRE1α His910Ala): 5.3 µM | Sensitivity of RNase activity to inhibitor (murine IRE1α Lys907Ala [7]): insensitive
Molecule: COCCOCCc1c(C)c2cc(OC)c(O)c(C=O)c2oc1=O [MKC9989, 7-Hydroxy-6-methoxy-3-(2-(2-methoxyethoxy)ethyl)-4-methyl-2-oxo-2H-chromene-8-carbaldehyde]
CD59 mRNA level (CD59 mRNA (RIDD target); administered 2 hour post treatment with thapsigargin): moderately stabilized | CD59 mRNA level (CD59 mRNA (RIDD target); co-administered with thapsigargin relative to thapsigargin alone): markedly stabilized | CD59 mRNA level (CD59 mRNA (RIDD target); non-stressed cells): modestly increased | Inhibition of basal and thapsigargin induced splicing of XBP1 mRNA ([5]; 10 μM compound, 1 μM thapsigargin, RPMI 8226): completely inhibited

Effect on concentration dependent oligomerization of IRE1α (murine IRE1α [8]): enhanced | IC50 [10]: 1.1 µM
Molecule: JAK inhibitor I
Effect on dimerization/oligomerization of yeast IRE1 and its RNase activity (yeast IRE1 [9]): promoted
